In US9902728B2, “Pyrrolo and pyrazolopyrimidines as ubiquitin-specific protease 7 inhibitors” (Forma Therapeutics, Inc., priority 2014, dated 2018) one finds IC50 data, which are given here for 58 molecules.

The structures appear in SMILES notation.

T1 sequence (Q93009 208-1102): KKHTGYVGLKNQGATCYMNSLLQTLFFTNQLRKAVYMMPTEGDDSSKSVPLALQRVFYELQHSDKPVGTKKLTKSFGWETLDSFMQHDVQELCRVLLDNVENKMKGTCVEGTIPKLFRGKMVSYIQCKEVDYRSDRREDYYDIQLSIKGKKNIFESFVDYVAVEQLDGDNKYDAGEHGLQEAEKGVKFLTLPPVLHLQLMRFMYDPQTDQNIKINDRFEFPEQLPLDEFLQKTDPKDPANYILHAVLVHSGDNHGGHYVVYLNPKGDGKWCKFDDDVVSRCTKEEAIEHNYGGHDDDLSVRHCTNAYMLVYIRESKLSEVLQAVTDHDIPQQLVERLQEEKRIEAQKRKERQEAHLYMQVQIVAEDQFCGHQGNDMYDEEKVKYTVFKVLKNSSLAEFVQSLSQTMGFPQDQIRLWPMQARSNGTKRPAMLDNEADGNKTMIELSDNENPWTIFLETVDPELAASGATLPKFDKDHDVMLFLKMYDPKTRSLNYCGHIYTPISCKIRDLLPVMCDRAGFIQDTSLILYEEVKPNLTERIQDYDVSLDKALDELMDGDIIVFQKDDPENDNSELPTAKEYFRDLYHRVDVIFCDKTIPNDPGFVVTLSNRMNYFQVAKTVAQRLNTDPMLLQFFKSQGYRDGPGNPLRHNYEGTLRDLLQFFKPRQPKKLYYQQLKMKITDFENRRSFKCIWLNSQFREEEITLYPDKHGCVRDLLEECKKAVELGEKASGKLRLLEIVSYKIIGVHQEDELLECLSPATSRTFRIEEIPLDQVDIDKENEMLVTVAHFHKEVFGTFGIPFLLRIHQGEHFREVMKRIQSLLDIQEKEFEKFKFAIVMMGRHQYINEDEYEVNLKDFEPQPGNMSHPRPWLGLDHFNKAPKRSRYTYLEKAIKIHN

One test has as its target T1, USP7 (Homo sapiens, UniProt Q93009).
T1 construct: USP7, construct USP7 (208-1102) 6*His, Viva Biotech; 6xHis (C); purchased Viva Biotech
The test can be described thus: USP7 Assay A (Ubitquin-Rhodamine 110 Assay). Format: biochemical. The settings on record: USP7 activity in USP7 assay A and B (table does not say which assay per compound); read-out: USP7_IC50. The method in brief:
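Enzyme and compound sat together for 30 min before Ub-Rh110 was added, in buffer of 20 mM Tris-HCl (pH 8.0), 1 mM GSH, 0.03% BGG and 0.01% Triton X-100.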
`CC1(C(=O)N2CCC(O)(Cn3cnc4c(cnn4-c4ccc(F)cc4)c3=O)CC2)CCC(Oc2ccccn2)CC1` (stereo not shown) [Compound I-745]: the IC50 is 1000 to 10000 nM. Still for that read-out and setting: in the case of `CC1(C(=O)N2CCC(O)(Cn3cnc4c(cnn4-c4ccc(F)cc4)c3=O)CC2)CCC(Oc2ccccn2)CC1` (stereo not shown) [Compound I-746] it was 1000 to 10000 nM; in that of `O=C(C1CCC(Oc2ncccn2)CC1)N1CCC(O)(Cn2cnc3c(cnn3-c3ccc(F)cc3)c2=O)CC1` (stereo not shown) [Compound I-747], 1000 to 10000 nM; in that of `O=C(C1CCC(Oc2ncccn2)CC1)N1CCC(O)(Cn2cnc3c(cnn3-c3ccc(F)cc3)c2=O)CC1` (stereo not shown) [Compound I-748], 200 to 1000 nM. As to `O=C(C1CCC(Oc2cccnc2)CC1)N1CCC(O)(Cn2cnc3c(cnn3-c3ccc(F)cc3)c2=O)CC1` (stereo not shown) [Compound I-749], the IC50 is less than 200 nM.

As for `O=C(C1CCC(Oc2cccnc2)CC1)N1CCC(O)(Cn2cnc3c(cnn3-c3ccc(F)cc3)c2=O)CC1` (stereo not shown) [Compound I-750], the IC50 is 200 to 1000 nM. Consider `O=C(C1CCC(Oc2ccncc2)CC1)N1CCC(O)(Cn2cnc3c(cnn3-c3ccc(F)cc3)c2=O)CC1` (stereo not shown) [Compound I-751], for which the IC50 was in the range of 1000 to 10000 nM. The same measure, in the same setting: in the case of `O=C(C1CCC(Oc2ccncc2)CC1)N1CCC(O)(Cn2cnc3c(cnn3-c3ccc(F)cc3)c2=O)CC1` (stereo not shown) [Compound I-752] it was less than 200 nM. Same read-out and setting: in the case of `Cn1ccc(OC2CCC(C(=O)N3CCC(O)(Cn4cnc5c(cnn5-c5ccc(F)cc5)c4=O)CC3)CC2)n1` (stereo not shown) [Compound I-753] it was 200 to 1000 nM; in that of `Cn1ccc(OC2CCC(C(=O)N3CCC(O)(Cn4cnc5c(cnn5-c5ccc(F)cc5)c4=O)CC3)CC2)n1` (stereo not shown) [Compound I-754], 200 to 1000 nM; in that of `Cc1cc(OC2CCC(C(=O)N3CCC(O)(Cn4cnc5c(cnn5-c5ccc(F)cc5)c4=O)CC3)CC2)no1` (stereo not shown) [Compound I-755], 200 to 1000 nM.

With `Cc1cc(OC2CCC(C(=O)N3CCC(O)(Cn4cnc5c(cnn5-c5ccc(F)cc5)c4=O)CC3)CC2)no1` (stereo not shown) [Compound I-756], the IC50 lay within 200 to 1000 nM. Same read-out and setting: in the case of `Cn1cc(OC2CCC(C(=O)N3CCC(O)(Cn4cnc5c(cnn5-c5ccc(F)cc5)c4=O)CC3)CC2)cn1` (stereo not shown) [Compound I-757] it was 200 to 1000 nM.

Consider `Cn1cc(OC2CCC(C(=O)N3CCC(O)(Cn4cnc5c(cnn5-c5ccc(F)cc5)c4=O)CC3)CC2)cn1` (stereo not shown) [Compound I-758], for which the IC50 lay within 200 to 1000 nM. The same measure, in the same setting: in the case of `O=C(N1CCC(O)(Cn2cnc3c(cnn3-c3ccc(F)cc3)c2=O)CC1)N1CC[C@H]1Cc1ccccc1` [Compound I-760] it was 1000 to 10000 nM; in that of `O=C(N1CCC(O)(Cn2cnc3c(cnn3-c3ccc(F)cc3)c2=O)CC1)N1CCc2cn[nH]c2C1` [Compound I-761], less than 200 nM. With `Cn1ncc2c1CN(C(=O)N1CCC(O)(Cn3cnc4c(cnn4-c4ccc(F)cc4)c3=O)CC1)CC2` [Compound I-762], the IC50 was in the range of 1000 to 10000 nM.

For the molecule `Cn1nccc1NC1CCC(C(=O)N2CCC(O)(Cn3cnc4c(cnn4-c4ccc(F)cc4)c3=O)CC2)CC1` (stereo not shown) [Compound I-763], the IC50 fell in the range of 1000 to 10000 nM. The same measure, in the same setting: in the case of `Cn1nccc1NC1CCC(C(=O)N2CCC(O)(Cn3cnc4c(cnn4-c4ccc(F)cc4)c3=O)CC2)CC1` (stereo not shown) [Compound I-764] it was 200 to 1000 nM; in that of `Cn1ccc(NC2CCC(C(=O)N3CCC(O)(Cn4cnc5c(cnn5-c5ccc(F)cc5)c4=O)CC3)CC2)n1` (stereo not shown) [Compound I-765], 1000 to 10000 nM. On the same count and under the same terms, in the case of `Cn1ccc(NC2CCC(C(=O)N3CCC(O)(Cn4cnc5c(cnn5-c5ccc(F)cc5)c4=O)CC3)CC2)n1` (stereo not shown) [Compound I-766] it was 200 to 1000 nM; in that of `O=C(C1CCC(Nc2ccccc2)CC1)N1CCC(O)(Cn2cnc3c(cnn3-c3ccc(F)cc3)c2=O)CC1` (stereo not shown) [Compound I-767], 200 to 1000 nM; in that of `O=C(C1CCC(Nc2ccccc2)CC1)N1CCC(O)(Cn2cnc3c(cnn3-c3ccc(F)cc3)c2=O)CC1` (stereo not shown) [Compound I-768], less than 200 nM.

Turning to `O=C(C1CCC(NC2CC2)CC1)N1CCC(O)(Cn2cnc3c(cnn3-c3ccc(F)cc3)c2=O)CC1` (stereo not shown) [Compound I-769], the IC50 lay within 200 to 1000 nM. As for `O=C(c1cnc(NC2CC2)o1)N1CCC(O)(Cn2cnc3c(cnn3-c3ccc(Cl)cc3)c2=O)CC1` [Compound I-771], the IC50 lay in the range of 200 to 1000 nM. Consider `Cn1cc(C(=O)N2CCC(O)(Cn3cnc4c(cnn4-c4ccc(Cl)cc4)c3=O)CC2)cn1` [Compound I-772], for which the IC50 is 200 to 1000 nM.

Take `Cn1cc(-c2ccc(-n3ncc4c(=O)n(CC5(O)CCN(C(=O)C6(C)CC6)CC5)cnc43)cc2)cn1` [Compound I-775]: the IC50 was in the range of 200 to 1000 nM. On the same count and under the same terms, in the case of `Cn1cc(-c2ccc(-n3ncc4c(=O)n(CC5(O)CCN(C(=O)c6cnc(C7CC7)o6)CC5)cnc43)cc2)cn1` [Compound I-776] it was less than 200 nM. Take `Cc1cnn(-c2ccc(-n3ncc4c(=O)n(CC5(O)CCN(C(=O)c6cnc(C7CC7)o6)CC5)cnc43)cc2)c1` [Compound I-779]: the IC50 is less than 200 nM. The same measure, in the same setting: in the case of `O=C(c1cnc(C2CC2)o1)N1CCC(O)(Cn2cnc3c(cnn3-c3ccc(-n4cccn4)cc3)c2=O)CC1` [Compound I-780] it was less than 200 nM. Take `CC1(C(=O)N2CCC(O)(Cn3cnc4c(cnn4-c4ccc(-n5cccn5)cc4)c3=O)CC2)CC1` [Compound I-781]: the IC50 fell in the range of 200 to 1000 nM. As for `CC1(C(=O)N2CCC(O)(Cn3cnc4c(cnn4-c4ccc(-n5cccn5)cc4)c3=O)CC2)CCC1` [Compound I-782], the IC50 is less than 200 nM. Still for that read-out and setting: in the case of `C[C@@]1(O)CCN(c2ccc(-n3ncc4c(=O)n(CC5(O)CCN(C(=O)C6CCCCC6)CC5)cnc43)cc2)C1` [Compound I-783] it was 200 to 1000 nM; in that of `O=C(C[C@@H](C(F)F)n1ccc(F)n1)N1CCC(O)(Cn2cnc3c(cnn3-c3ccc(N4CC5CC5C4)cc3)c2=O)CC1` (stereo partly shown) [Compound I-784], less than 200 nM. As to `O=C(C[C@H](C(F)F)n1ccc(F)n1)N1CCC(O)(Cn2cnc3c(cnn3-c3ccc(N4CC5CC5C4)cc3)c2=O)CC1` (stereo partly shown) [Compound I-785], the IC50 is 200 to 1000 nM. Same read-out and setting: in the case of `CC1(C(=O)N2CCC(O)(Cn3cnc4c(cnn4-c4ccc(NC5CCC(F)(F)CC5)cc4)c3=O)CC2)CC1` [Compound I-786] it was 200 to 1000 nM; in that of `O=C(C[C@H](C(F)F)n1ccc(F)n1)N1CCC(O)(Cn2cnc3c(cnn3-c3cccc(N4CCOCC4)c3)c2=O)CC1` [Compound I-788], 1000 to 10000 nM. The same measure, in the same setting: in the case of `O=C(C[C@@H](C(F)F)n1ccc(F)n1)N1CCC(O)(Cn2cnc3c(cnn3-c3cccc(N4CCOCC4)c3)c2=O)CC1` [Compound I-789] it was less than 200 nM; in that of `O=C(C[C@@H](C(F)F)n1ccc(F)n1)N1CCC(O)(Cn2cnc3c(cnn3-c3cccc(N4CC5CC5C4)c3)c2=O)CC1` (stereo partly shown) [Compound I-790], less than 200 nM. As for `O=C(C[C@H](C(F)F)n1ccc(F)n1)N1CCC(O)(Cn2cnc3c(cnn3-c3cccc(N4CC5CC5C4)c3)c2=O)CC1` (stereo partly shown) [Compound I-791], the IC50 fell in the range of 200 to 1000 nM.

Turning to `CN1CCN(c2cccc(-n3ccc4c(=O)n(CC5(O)CCN(C(=O)C[C@H](C(F)F)n6cccn6)CC5)cnc43)c2)CC1` [Compound I-792], the IC50 lay in the range of 200 to 1000 nM.

Consider `CN1CCN(c2cccc(-n3ccc4c(=O)n(CC5(O)CCN(C(=O)C[C@@H](C(F)F)n6cccn6)CC5)cnc43)c2)CC1` [Compound I-793], for which the IC50 was less than 200 nM. `Cn1nccc1O[C@H]1CC[C@H](C(=O)N2CCC(O)(Cn3cnc4c(ccn4-c4ccc(F)cc4)c3=O)CC2)CC1` [Compound I-794]: the IC50 was in the range of 200 to 1000 nM.

Consider `Cc1ccc(-n2ncc3c(=O)n(CC4(O)CCN(C(=O)C[C@H](C(F)F)n5ccc(F)n5)CC4)cnc32)cc1` [Compound I-796], for which the IC50 was less than 200 nM. On the same count and under the same terms, in the case of `Cc1ccc(-n2ncc3c(=O)n(CC4(O)CCN(C(=O)C[C@@H](C(F)F)n5ccc(F)n5)CC4)cnc32)cc1` [Compound I-797] it was 1000 to 10000 nM; in that of `O=C(c1cnn(C2CC2)c1)N1CCC(O)(Cn2cnc3c(cnn3-c3ccc(C4CC4)cc3)c2=O)CC1` [Compound I-798], 200 to 1000 nM.

With `Cc1ncc(C(=O)N2CCC(O)(Cn3cnc4c(cnn4-c4ccc(C5CC5)cc4)c3=O)CC2)o1` [Compound I-799], the IC50 lay in the range of 200 to 1000 nM. Turning to `Cc1cc(N[C@H]2CC[C@H](C(=O)N3CCC(O)(Cn4cnc5c(cnn5-c5ccc(F)cc5)c4=O)CC3)CC2)no1` [Compound I-806], the IC50 lay in the range of 200 to 1000 nM. The same measure, in the same setting: in the case of `Cc1cc(N[C@H]2CC[C@@H](C(=O)N3CCC(O)(Cn4cnc5c(cnn5-c5ccc(F)cc5)c4=O)CC3)CC2)no1` [Compound I-807] it was 1000 to 10000 nM; in that of `CN1CC(O)(COc2ccc(-n3ncc4c(=O)n(CC5(O)CCN(C(=O)c6ccc(F)cc6)CC5)cnc43)cc2)C1` [Compound I-816], less than 200 nM. As to `O=C(c1cnc(C2CC2)o1)N1CCC(O)(Cn2cnc3c(cnn3-c3ccc(OC4CCC(F)(F)CC4)cc3)c2=O)CC1` [Compound I-817], the IC50 was less than 200 nM.

Take `CN1CCN(c2ccn(-c3ccc(-n4ncc5c(=O)n(CC6(O)CCN(C(=O)C7CC7)CC6)cnc54)cc3)n2)CC1` [Compound I-818]: the IC50 was less than 200 nM.

On to `O=C(C1CC1)N1CCC(O)(Cn2cnc3c(cnn3-c3ccc(-n4cc(N5CCOCC5)cn4)cc3)c2=O)CC1` [Compound I-819], for which the IC50 was 200 to 1000 nM. For the molecule `O=C(c1ccc(F)cc1)N1CCC(O)(Cn2cnc3c(cnn3-c3ccc(-n4ncc5c4CCOC5)cc3)c2=O)CC1` [Compound I-820], the IC50 is 200 to 1000 nM. Consider `O=C(C[C@H](C(F)F)n1cccn1)N1CCC(O)(Cn2cnc3c(cnn3-c3ccc(N4CCCCC4)cc3)c2=O)CC1` [Compound I-821], for which the IC50 lay within 1000 to 10000 nM.

Consider `O=C(C[C@@H](C(F)F)n1cccn1)N1CCC(O)(Cn2cnc3c(cnn3-c3ccc(N4CCCCC4)cc3)c2=O)CC1` [Compound I-822], for which the IC50 lay within 200 to 1000 nM.

Staying with this test, now noted: USP7 assay A and B (table does not say which assay per compound); read-out: USP7_IC50.
On to `C#CC(=O)N1CC[C@H]1C(=O)N1CCC(O)(Cn2cnc3c(cnn3-c3ccc(F)cc3)c2=O)CC1` [Compound I-803], for which the IC50 fell in the range of 200 to 1000 nM. With `C=CS(=O)(=O)N[C@H](Cc1ccccc1)C(=O)N1CCC(O)(Cn2cnc3c(cnn3-c3ccccc3)c2=O)CC1` [Compound I-814], the IC50 was 200 to 1000 nM.
